Results from PubChem BioAssay AID330 (DTP/NCI, 2004).
Several values for one entry are separate records, joined by “and”; a condition that tells them apart may be missing. Equal entries are not always repeated. Toxic doses and inconclusive results are not listed. Rule for the calls: active = survival T/C of 150% or more; inactive = T/C below 125% in these data.

Tested on: P388 leukemia ip, CD2F1 mice, survival T/C
Test: NCI In Vivo Anticancer Drug Screen. Data for tumor model P388 Leukemia (intraperitoneal) in CD2F1 (CDF1) mice
Details: endpoint: median survival time, higher = longer survival
In short: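 Mice carrying the transplanted tumor received test compound or vehicle. Survival was recorded in each group, and the value is the treated-group measurement divided by that of the vehicle-treated control group.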

[1] = dose: 100.0 mg/kg/injection, schedule: Q01DX001 (ip), vehicle: Klucel (hydroxypropylcellulose) (HPC)
[2] = dose: 200.0 mg/kg/injection, schedule: Q01DX001 (ip), vehicle: Klucel (hydroxypropylcellulose) (HPC)
[3] = dose: 400.0 mg/kg/injection, schedule: Q01DX001 (ip), vehicle: Klucel (hydroxypropylcellulose) (HPC)
[4] = dose: 50.0 mg/kg/injection, schedule: Q01DX009 (ip), vehicle: saline with Tween-80
[5] = dose: 100.0 mg/kg/injection, schedule: Q01DX009 (ip), vehicle: saline with Tween-80
[6] = dose: 200.0 mg/kg/injection, schedule: Q01DX009 (ip), vehicle: saline with Tween-80
[7] = dose: 60.0 mg/kg/injection, schedule: Q01DX005 (ip), vehicle: saline with Tween-80
[8] = dose: 120.0 mg/kg/injection, schedule: Q01DX005 (ip), vehicle: saline with Tween-80
[9] = dose: 240.0 mg/kg/injection, schedule: Q01DX005 (ip), vehicle: saline with Tween-80
[10] = dose: 50.0 mg/kg/injection, schedule: Q01DX005 (ip), vehicle: saline with Tween-80
[11] = dose: 100.0 mg/kg/injection, schedule: Q01DX005 (ip), vehicle: saline with Tween-80

Measured: T/C

CC1(C)C2=CCC[C@H]2[C@H]2[C@@H](OC(=O)/C=C/c3ccccc3)CC[C@H]21
inactive: [1] 100 % of control | [2] 103 % of control | [3] 103 % of control

BrC1=CC(Br)=C2N=C(N3CCCC3)N=C3N=C(N4CCCC4)N=C1N32
inactive: dose: 3.75 mg/kg/injection, schedule: Q01DX005 (ip), vehicle: Klucel + Tween-80 97 % of control | dose: 7.5 mg/kg/injection, schedule: Q01DX005 (ip), vehicle: Klucel + Tween-80 97 % of control | dose: 15.0 mg/kg/injection, schedule: Q01DX005 (ip), vehicle: Klucel + Tween-80 89 % of control and 90 % of control | dose: 60.0 mg/kg/injection, schedule: Q01DX005 (ip), vehicle: Klucel + Tween-80 86 % of control

CC(=O)N(O)C1CCCCC1
inactive: [4] 101 % of control | dose: 50.0 mg/kg/injection, schedule: Q01DX009 (ip), vehicle: saline 112 % of control | [5] 101 % of control | dose: 100.0 mg/kg/injection, schedule: Q01DX009 (ip), vehicle: saline 97 % of control | [6] 103 % of control | dose: 200.0 mg/kg/injection, schedule: Q01DX009 (ip), vehicle: saline 100 % of control

Cc1ccc([N+](=O)[O-])cc1NC(=O)Nc1onc(C)c1C
inactive: [7] 87 % of control | [8] 93 % of control | [9] 88 % of control

C/C(=C\c1ccc(OCC(=O)O)c2ccccc12)[N+](=O)[O-]
inactive: dose: 25.0 mg/kg/injection, schedule: Q01DX001 (ip), vehicle: saline with Tween-80 110 % of control | dose: 50.0 mg/kg/injection, schedule: Q01DX001 (ip), vehicle: saline with Tween-80 111 % of control | dose: 100.0 mg/kg/injection, schedule: Q01DX001 (ip), vehicle: saline with Tween-80 101 % of control

CN1/C(=C2\C=CC=C\C2=N/S(=O)(=O)c2ccc(Cl)cc2)Sc2ccccc21
inactive: dose: 100.0 mg/kg/injection, schedule: Q04DX003 (ip), vehicle: saline 103 % of control | dose: 200.0 mg/kg/injection, schedule: Q04DX003 (ip), vehicle: saline 104 % of control | dose: 400.0 mg/kg/injection, schedule: Q04DX003 (ip), vehicle: saline 99 % of control

CCOC(=O)Nc1cc(NC/C(=N/O)c2ccc(OC)cc2)c([N+](=O)[O-])c(N)n1
inactive: dose: 12.5 mg/kg/injection, schedule: Q01DX005 (ip), vehicle: saline 98 % of control | dose: 25.0 mg/kg/injection, schedule: Q01DX005 (ip), vehicle: saline 94 % of control | dose: 50.0 mg/kg/injection, schedule: Q01DX005 (ip), vehicle: saline 94 % of control

CCOC(=O)N1CCc2cc3c(cc2C1Cc1ccc(OC)c(OC)c1CCl)OCO3 (centres undefined)
inactive: [10] 100 % of control | [11] 92 % of control

NCCCNCCCNc1nc2nc(N)nc(N)c2nc1-c1ccc([N+](=O)[O-])cc1
inactive: dose: 6.25 mg/kg/injection, schedule: Q01DX005 (ip), vehicle: saline with Tween-80 99 % of control | dose: 12.5 mg/kg/injection, schedule: Q01DX005 (ip), vehicle: saline with Tween-80 101 % of control | dose: 25.0 mg/kg/injection, schedule: Q01DX005 (ip), vehicle: saline with Tween-80 105 % of control | [10] 97 % of control

COc1ccc(OC)c(NC(=O)CCCC(=O)C(C#N)c2ccccc2C)c1 (centres undefined)
inactive: [7] 105 % of control | [8] 105 % of control | [9] 104 % of control

C=C1C(=O)OC2/C=C(\CO)CC/C=C(/C=O)CC(O)C12 (centres undefined)
inactive: dose: 1.89 mg/kg/injection, schedule: Q01DX005 (ip), vehicle: saline 101 % of control | dose: 3.75 mg/kg/injection, schedule: Q01DX005 (ip), vehicle: saline 101 % of control | dose: 7.5 mg/kg/injection, schedule: Q01DX005 (ip), vehicle: saline 99 % of control | dose: 15.0 mg/kg/injection, schedule: Q01DX005 (ip), vehicle: saline 96 % of control

COc1ccc2c(c1OC)C1N(C)CCc3cc4c(cc3C1(OC)C2=O)OCO4 (centres undefined)
inactive: [7] 93 % of control | [8] 88 % of control | [9] 93 % of control

N#CC(=C1SCS1)[N+](=O)[O-]
inactive: dose: 1.56 mg/kg/injection, schedule: Q01DX009 (ip), vehicle: saline 121 % of control | dose: 3.13 mg/kg/injection, schedule: Q01DX009 (ip), vehicle: saline with Tween-80 121 % of control

COC1CC(N)C2OC(c3ccccc3)OCC2O1 (centres undefined)
inactive: [4] 99 % of control | [5] 101 % of control | [6] 109 % of control

CCCCC(CCCC)=NO
inactive: [10] 108 % of control | [11] 100 % of control

CCCNC(=O)ON1C(=O)C2C3C=CC(C3)C2C1=O (centres undefined)
inactive: dose: 6.25 mg/kg/injection, schedule: Q01DX005 (ip), vehicle: Klucel (hydroxypropylcellulose) (HPC) 96 % of control | dose: 12.5 mg/kg/injection, schedule: Q01DX005 (ip), vehicle: Klucel (hydroxypropylcellulose) (HPC) 104 % of control | dose: 25.0 mg/kg/injection, schedule: Q01DX005 (ip), vehicle: Klucel (hydroxypropylcellulose) (HPC) 96 % of control

NC(Cc1ccccc1)C(=O)Nc1ccncc1 (centres undefined)
inactive: dose: 12.5 mg/kg/injection, schedule: Q01DX001 (ip), vehicle: saline 105 % of control | dose: 25.0 mg/kg/injection, schedule: Q01DX001 (ip), vehicle: saline 106 % of control | dose: 50.0 mg/kg/injection, schedule: Q01DX001 (ip), vehicle: saline 103 % of control

CN(C)c1ccc(C=C2C(=O)OC(C)(C)OC2=O)cc1
inactive: dose: 50.0 mg/kg/injection, schedule: Q01DX005 (ip), vehicle: Klucel (hydroxypropylcellulose) (HPC) 114 % of control | dose: 100.0 mg/kg/injection, schedule: Q01DX005 (ip), vehicle: Klucel (hydroxypropylcellulose) (HPC) 105 % of control | dose: 200.0 mg/kg/injection, schedule: Q01DX005 (ip), vehicle: Klucel (hydroxypropylcellulose) (HPC) 114 % of control

O=C(CCl)NC1(C(=O)O)CCCC1
inactive: dose: 50.0 mg/kg/injection, schedule: Q01DX009 (ip), vehicle: Klucel (hydroxypropylcellulose) (HPC) 94 % of control | dose: 100.0 mg/kg/injection, schedule: Q01DX009 (ip), vehicle: Klucel (hydroxypropylcellulose) (HPC) 90 % of control | dose: 200.0 mg/kg/injection, schedule: Q01DX009 (ip), vehicle: Klucel (hydroxypropylcellulose) (HPC) 97 % of control

C=C(C)CN(CCC#N)CC(=C)C
inactive: [10] 102 % of control | [11] 105 % of control | dose: 200.0 mg/kg/injection, schedule: Q01DX005 (ip), vehicle: saline with Tween-80 101 % of control

NC(N)=NCCCC(N=C1C=CC(=NC(CCCN=C(N)N)C(=O)O)C=C1)C(=O)O (centres undefined)
inactive: dose: 50.0 mg/kg/injection, schedule: Q04DX002 (ip), vehicle: distilled water + alcohol 99 % of control | dose: 100.0 mg/kg/injection, schedule: Q04DX002 (ip), vehicle: distilled water + alcohol 101 % of control | dose: 200.0 mg/kg/injection, schedule: Q04DX002 (ip), vehicle: distilled water + alcohol 104 % of control | dose: 400.0 mg/kg/injection, schedule: Q04DX002 (ip), vehicle: distilled water + alcohol 107 % of control | dose: 600.0 mg/kg/injection, schedule: Q04DX002 (ip), vehicle: distilled water + alcohol 108 % of control

CC(=O)Oc1ccc(OC(C)=O)c2c1CC1OC1C2 (centres undefined)
inactive: dose: 3.13 mg/kg/injection, schedule: Q01DX009 (ip), vehicle: water 100 % of control | dose: 6.25 mg/kg/injection, schedule: Q01DX009 (ip), vehicle: water 98 % of control | dose: 12.5 mg/kg/injection, schedule: Q01DX009 (ip), vehicle: water 100 % of control | dose: 25.0 mg/kg/injection, schedule: Q01DX009 (ip), vehicle: water 90 % of control | dose: 50.0 mg/kg/injection, schedule: Q01DX009 (ip), vehicle: water 100 % of control | dose: 100.0 mg/kg/injection, schedule: Q01DX009 (ip), vehicle: distilled water + Tween-80 111 % of control | dose: 200.0 mg/kg/injection, schedule: Q01DX009 (ip), vehicle: distilled water + Tween-80 111 % of control | dose: 400.0 mg/kg/injection, schedule: Q01DX009 (ip), vehicle: distilled water + Tween-80 100 % of control

NC(=O)c1c(-c2ccccc2)nc2n1CCS2
inactive: [1] 106 % of control | [2] 109 % of control | [3] 107 % of control
